Where “and” joins values, the source holds several entries; their conditions need not be identical. Identical values can stand only once.
Test: molar heat capacity at constant volume; xn = mol fraction of the nth substance listed
Details: x1 = 0.2607

N [ammonia] + O
Details	molar heat capacity at constant volume
601.54 K, Fluid (supercritical or subcritical phases), Mass density=301.94 kg/m3, isochoric heat capacity	93.57 J/K/mol
601.55 K, Fluid (supercritical or subcritical phases), Mass density=291.16 kg/m3, isochoric heat capacity	90.62 J/K/mol
601.56 K, Fluid (supercritical or subcritical phases), Mass density=188.05 kg/m3, isochoric heat capacity	61.55 J/K/mol
601.62 K, Fluid (supercritical or subcritical phases), Mass density=285.71 kg/m3, isochoric heat capacity	88.9 J/K/mol
601.63 K, Fluid (supercritical or subcritical phases), Mass density=299.79 kg/m3, isochoric heat capacity	98.44 J/K/mol
601.66 K, Fluid (supercritical or subcritical phases), Mass density=294.44 kg/m3, isochoric heat capacity	99.98 J/K/mol
601.71 K, Fluid (supercritical or subcritical phases), Mass density=285.71 kg/m3, isochoric heat capacity	87.96 J/K/mol
601.71 K, Fluid (supercritical or subcritical phases), Mass density=299.79 kg/m3, isochoric heat capacity	95.13 J/K/mol
601.75 K, Fluid (supercritical or subcritical phases), Mass density=188.05 kg/m3, isochoric heat capacity	64.8 J/K/mol
601.75 K, Fluid (supercritical or subcritical phases), Mass density=195.99 kg/m3, isochoric heat capacity	103.89 J/K/mol
601.75 K, Liquid, Isochoric heat capacity	103.89 J/K/mol
601.79 K, Fluid (supercritical or subcritical phases), Mass density=195.99 kg/m3, isochoric heat capacity	94.8 J/K/mol
601.82 K, Fluid (supercritical or subcritical phases), Mass density=294.44 kg/m3, isochoric heat capacity	98.74 J/K/mol
601.88 K, Fluid (supercritical or subcritical phases), Mass density=376.89 kg/m3, isochoric heat capacity	79.03 J/K/mol
601.89 K, Fluid (supercritical or subcritical phases), Mass density=195.99 kg/m3, isochoric heat capacity	87.6 J/K/mol
601.97 K, Fluid (supercritical or subcritical phases), Mass density=297.6 kg/m3, isochoric heat capacity	100.3 J/K/mol
601.97 K, Fluid (supercritical or subcritical phases), Mass density=376.89 kg/m3, isochoric heat capacity	76.68 J/K/mol
601.98 K, Fluid (supercritical or subcritical phases), Mass density=195.99 kg/m3, isochoric heat capacity	77.82 J/K/mol
602.05 K, Fluid (supercritical or subcritical phases), Mass density=271.09 kg/m3, isochoric heat capacity	106.73 J/K/mol
602.05 K, Fluid (supercritical or subcritical phases), Mass density=376.89 kg/m3, isochoric heat capacity	80.09 J/K/mol
602.05 K, Liquid, Isochoric heat capacity	106.73 J/K/mol
602.08 K, Fluid (supercritical or subcritical phases), Mass density=271.09 kg/m3, isochoric heat capacity	104.24 J/K/mol
602.09 K, Fluid (supercritical or subcritical phases), Mass density=271.09 kg/m3, isochoric heat capacity	100.44 J/K/mol
602.12 K, Fluid (supercritical or subcritical phases), Mass density=271.09 kg/m3, isochoric heat capacity	96.3 J/K/mol
602.13 K, Fluid (supercritical or subcritical phases), Mass density=307.35 kg/m3, isochoric heat capacity	96.93 J/K/mol
602.14 K, Fluid (supercritical or subcritical phases), Mass density=312.91 kg/m3, isochoric heat capacity	83.15 J/K/mol
602.22 K, Fluid (supercritical or subcritical phases), Mass density=312.91 kg/m3, isochoric heat capacity	82.81 J/K/mol
602.23 K, Fluid (supercritical or subcritical phases), Mass density=307.35 kg/m3, isochoric heat capacity	92.38 J/K/mol
602.24 K, Fluid (supercritical or subcritical phases), Mass density=271.09 kg/m3, isochoric heat capacity	93.92 J/K/mol
602.26 K, Fluid (supercritical or subcritical phases), Mass density=205.58 kg/m3, isochoric heat capacity	105.31 J/K/mol
602.26 K, Liquid, Isochoric heat capacity	105.31 J/K/mol
602.3 K, Fluid (supercritical or subcritical phases), Mass density=312.91 kg/m3, isochoric heat capacity	81.1 J/K/mol
602.31 K, Fluid (supercritical or subcritical phases), Mass density=205.58 kg/m3, isochoric heat capacity	100.51 J/K/mol
602.38 K, Fluid (supercritical or subcritical phases), Mass density=271.09 kg/m3, isochoric heat capacity	89.02 J/K/mol
602.39 K, Fluid (supercritical or subcritical phases), Mass density=205.58 kg/m3, isochoric heat capacity	86.66 J/K/mol
602.39 K, Fluid (supercritical or subcritical phases), Mass density=312.91 kg/m3, isochoric heat capacity	81.72 J/K/mol
602.4 K, Fluid (supercritical or subcritical phases), Mass density=307.35 kg/m3, isochoric heat capacity	94.4 J/K/mol
602.45 K, Liquid, Isochoric heat capacity	105.13 J/K/mol
602.48 K, Fluid (supercritical or subcritical phases), Mass density=205.58 kg/m3, isochoric heat capacity	75.47 J/K/mol
602.48 K, Fluid (supercritical or subcritical phases), Mass density=243.98 kg/m3, isochoric heat capacity	100.07 J/K/mol
602.48 K, Fluid (supercritical or subcritical phases), Mass density=260.02 kg/m3, isochoric heat capacity	100.07 J/K/mol
602.48 K, Fluid (supercritical or subcritical phases), Mass density=307.35 kg/m3, isochoric heat capacity	89.36 J/K/mol
602.48 K, Fluid (supercritical or subcritical phases), Mass density=312.91 kg/m3, isochoric heat capacity	84.69 J/K/mol
602.48 K, Fluid (supercritical or subcritical phases), Mass density=342.18 kg/m3, isochoric heat capacity	86.56 J/K/mol
602.48 K, Fluid (supercritical or subcritical phases), Mass density=376.89 kg/m3, isochoric heat capacity	81.21 J/K/mol
602.48 K, Fluid (supercritical or subcritical phases), Mass density=456.58 kg/m3, isochoric heat capacity	66.2 J/K/mol
602.51 K, Fluid (supercritical or subcritical phases), Mass density=271.09 kg/m3, isochoric heat capacity	86.04 J/K/mol
602.56 K, Fluid (supercritical or subcritical phases), Mass density=205.58 kg/m3, isochoric heat capacity	77.07 J/K/mol
602.56 K, Fluid (supercritical or subcritical phases), Mass density=243.98 kg/m3, isochoric heat capacity	96.22 J/K/mol
602.56 K, Fluid (supercritical or subcritical phases), Mass density=260.02 kg/m3, isochoric heat capacity	96.22 J/K/mol
602.56 K, Fluid (supercritical or subcritical phases), Mass density=307.35 kg/m3, isochoric heat capacity	92.18 J/K/mol
602.56 K, Fluid (supercritical or subcritical phases), Mass density=342.18 kg/m3, isochoric heat capacity	87.35 J/K/mol
602.62 K, Fluid (supercritical or subcritical phases), Mass density=195.99 kg/m3, isochoric heat capacity	72.88 J/K/mol
602.65 K, Fluid (supercritical or subcritical phases), Mass density=243.98 kg/m3, isochoric heat capacity	98.1 J/K/mol
602.65 K, Fluid (supercritical or subcritical phases), Mass density=260.02 kg/m3, isochoric heat capacity	98.1 J/K/mol
602.65 K, Fluid (supercritical or subcritical phases), Mass density=376.89 kg/m3, isochoric heat capacity	81.09 J/K/mol
602.65 K, Fluid (supercritical or subcritical phases), Mass density=456.58 kg/m3, isochoric heat capacity	68.55 J/K/mol
602.74 K, Fluid (supercritical or subcritical phases), Mass density=205.58 kg/m3, isochoric heat capacity	73.93 J/K/mol
602.74 K, Fluid (supercritical or subcritical phases), Mass density=214.83 kg/m3, isochoric heat capacity	106.91 J/K/mol
602.74 K, Fluid (supercritical or subcritical phases), Mass density=243.98 kg/m3, isochoric heat capacity	94.92 J/K/mol
602.74 K, Fluid (supercritical or subcritical phases), Mass density=260.02 kg/m3, isochoric heat capacity	94.92 J/K/mol
602.74 K, Fluid (supercritical or subcritical phases), Mass density=342.18 kg/m3, isochoric heat capacity	87.43 J/K/mol
602.74 K, Fluid (supercritical or subcritical phases), Mass density=376.89 kg/m3, isochoric heat capacity	79.29 J/K/mol
602.74 K, Liquid, Isochoric heat capacity	106.91 J/K/mol
602.82 K, Fluid (supercritical or subcritical phases), Mass density=214.83 kg/m3, isochoric heat capacity	102.73 J/K/mol
602.82 K, Fluid (supercritical or subcritical phases), Mass density=456.58 kg/m3, isochoric heat capacity	67.55 J/K/mol
602.85 K, Fluid (supercritical or subcritical phases), Mass density=218.92 kg/m3, isochoric heat capacity	108.5 J/K/mol
602.85 K, Liquid, Isochoric heat capacity	108.5 J/K/mol
602.91 K, Fluid (supercritical or subcritical phases), Mass density=214.83 kg/m3, isochoric heat capacity	94.28 J/K/mol
602.91 K, Fluid (supercritical or subcritical phases), Mass density=218.92 kg/m3, isochoric heat capacity	99.09 J/K/mol
602.91 K, Fluid (supercritical or subcritical phases), Mass density=243.98 kg/m3, isochoric heat capacity	106.2 J/K/mol
602.91 K, Fluid (supercritical or subcritical phases), Mass density=311.19 kg/m3, isochoric heat capacity	90.5 J/K/mol
602.91 K, Fluid (supercritical or subcritical phases), Mass density=342.18 kg/m3, isochoric heat capacity	82.9 J/K/mol
602.91 K, Liquid, Isochoric heat capacity	106.2 J/K/mol
602.96 K, Fluid (supercritical or subcritical phases), Mass density=224.53 kg/m3, isochoric heat capacity	111.03 J/K/mol
602.96 K, Fluid (supercritical or subcritical phases), Mass density=230.31 kg/m3, isochoric heat capacity	111.35 J/K/mol
602.96 K, Liquid, Isochoric heat capacity	111.35 J/K/mol and 111.03 J/K/mol
602.97 K, Fluid (supercritical or subcritical phases), Mass density=227.54 kg/m3, isochoric heat capacity	112.45 J/K/mol
602.97 K, Liquid, Isochoric heat capacity	112.45 J/K/mol
602.99 K, Fluid (supercritical or subcritical phases), Mass density=214.83 kg/m3, isochoric heat capacity	91.33 J/K/mol
602.99 K, Fluid (supercritical or subcritical phases), Mass density=224.53 kg/m3, isochoric heat capacity	109.57 J/K/mol

— the NIST ThermoML archive (doi:10.1007/s10765-009-0602-6)
